Tested on: 327498-153-R-J2-PDC complex spheroid growth, % test/control
Assay: Anticancer human tumor 327498-153-R-J2-PDC patient-derived uterine carcinosarcoma cell line growth inhibition [Asc]
Settings: for IC50: curve of first compound; for viability, T/C: stronger effect = lower value
Description: Multicellular complex tumor spheroid response to apoptosis pathway targeting inhibitors Alrizomadlin, Pelcitoclax, and Dasminapant in combination with a variety of drugs and investigational agents in selected tumor cell lines
The MDM2 inhibitor alrizomadlin, the Bcl-2/Bcl-xL inhibitor pelcitoclax, and the IAPs inhibitor dasminapant were evaluated both individually and in combination with standard of care and investigational anticancer small molecules within a complex spheroid model of solid tumors. . Complex spheroids include a stromal component modeled by human endothelial cells (HUVEC) and fibroblasts modeled by human mesenchymal stem cells (MSCs). The concentration ranges selected for each drug and investigational agent were based upon clinically achievable concentrations if the clinical Cmax of the agent was known.
Compounds. The drugs and investigational agents: alrizomadlin (APG-115; NSC831270), pelcitoclax (APG-1252; NSC835773), dasminapant (APG-1387;NSC834197), TAK-243 (NSC785004), copanlisib (NSC809693), olaparib (NSC753686), talazoparib (NSC767125), cobimetinib (NSC 768068), eltanexor (KPT-8602, NSC 794443), abemaciclib (NSC 768073), sotorasib (NSC818433), adagrasib (NSC 831453), MRTX-1133 (NSC 836407), Iadademestat (ORY1001, NSC 806812), and RMC-4630 (NSC839698), were obtained from the NCI Developmental Therapeutics Program Chemical Repository. The FDA-approved anticancer drug set is available from the Developmental Therapeutics Program at https://dtp.cancer.gov/organization/dscb/obtaining/available plates.htm. […] The stock solutions were prepared in dimethyl sulfoxide (DMSO, Sigma-Aldrich, St. Louis, MO, cat. D2650) at 800-fold the tested concentration and stored at -70 degrees C prior to their use. All drugs and investigational agents were tested over a range starting from a high concentration at or near the clinical Cmax and decreasing in half-log increments. If the clinical Cmax for an agent had not been determined, the highest concentration tested was 10 microM.
The patient-derived cancer (PDC) cell lines include five colon adenocarcinomas: 186277-243-T-J2-PDC, 616215-338-R-J1-PDC, 439559-082-T-J2-PDC, 463943-066-T-J2-PDC, and 519858-162-T-J1-PDC; three pancreatic carcinomas: 323965-272-R-J2-PDC, 521955-158-R6-J3-PDC, and 521955-158-R2-J5-PDC; two uterine sarcomas: 327498-152-R-J2-PDC and 993429-296-R-J1-PDC; two rhabdomyosarcomas: 755483-174-R-J1-PDC and 772245-204-R-J1-PDC; two soft tissue sarcomas: 126254-015-R-J1-PDC and 494315-158-R-J1-PDC; two malignant fibrous histiocytomas: 317291-083-R-J1-PDC and 596521-263-R-J1-PDC; two breast carcinomas: 171881-019-R-J1-PDC and 885512-296-R-J2-PDC; and one ovarian carcinoma: 6556581-035-R-J-PDC were obtained from the NCI PDMR, (https://pdmr.cancer.gov). The established cell lines HSSY-2 synovial sarcoma (RRID:CVCL 8719), SYO-1 synovial sarcoma (RRID:CVCL_7146), MPNST malignant peripheral neural sheath tumor were obtained from the Sloan Kettering Institute. The following established cell lines were purchased from the American Type Culture Collection (ATCC, Manassas, VA), Sor the received from the NCI repository:, PANC-1 pancreatic carcinoma (CRL-1469, RRID:CVCL_0480), OVCAR-5 ovarian carcinoma (RRID:CVCL_1628), OVCAR-8 ovarian carcinoma (RRID:CVCL_1629), , MCF-7 breast carcinoma (CRL-12584, RRID:CVCL_0031), MDA-MB-231 breast carcinoma (CRL-12532, RRID:CVCL_0062), NCI-H1876 small cell lung carcinoma (CRL-5902, RRID:CVCL_1503), NCI-H510A small cell lung carcinoma (HTB-184, RRID:CVCL_1565), NCI-H1417 (CRL-5869, RRID:CVCL_1469), and NCI-H196 small cell lung carcinoma (CRL-5823, RRID:CVCL_1509). Dr. Peter Houghton (Greehey Children's Cancer Research Institute, University of Texas Health Science Center, San Antonio, TX) provided Rh-18 rhabdomyosarcoma (RRID:CVCL_1659). Pooled donor human umbilical vein endothelial cells (HUVEC, Lonza, cat. CC-2519) and human mesenchymal stem cells (hMSC, Lonza, cat. PT-2501) were purchased from Lonza (Walkersville, MD).
Cell Culture. […]

[1] = second compound 0.03 µM, first compound 0.0316 µM
[2] = second compound 0.03 µM, first compound 0.1 µM
[3] = second compound 0.03 µM, first compound 0.316 µM
[4] = second compound 0.03 µM, first compound 1 µM
[5] = second compound 0.0949 µM, first compound 0.0316 µM
[6] = second compound 0.0949 µM, first compound 0.1 µM
[7] = second compound 0.0949 µM, first compound 0.316 µM
[8] = second compound 0.0949 µM, first compound 1 µM
[9] = second compound 0.3 µM, first compound 0.0316 µM
[10] = second compound 0.3 µM, first compound 0.1 µM
[11] = second compound 0.3 µM, first compound 0.316 µM
[12] = second compound 0.3 µM, first compound 1 µM
[13] = second compound 0.949 µM, first compound 0.0316 µM
[14] = second compound 0.949 µM, first compound 0.1 µM
[15] = second compound 0.949 µM, first compound 0.316 µM
[16] = second compound 0.949 µM, first compound 1 µM
[17] = second compound 3 µM, first compound 0.0316 µM
[18] = second compound 3 µM, first compound 0.1 µM
[19] = second compound 3 µM, first compound 0.316 µM
[20] = second compound 3 µM, first compound 1 µM
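Also: spheroids exposed to compound for 7 days after 3 days of growth.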
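For viability, T/C in this document: 100% = DMSO vehicle control wells.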

| IC50 (second compound 0.03 µM) [nM] | IC50 (second compound 0.0949 µM) [nM] | IC50 (second compound 0.3 µM) [nM] | IC50 (second compound 0.949 µM) [nM] | IC50 (second compound 3 µM) [nM] | Compound | viability, T/C [1] [%] | viability, T/C [2] [%] | viability, T/C [3] [%] | viability, T/C [4] [%] | viability, T/C [5] [%] | viability, T/C [6] [%] | viability, T/C [7] [%] | viability, T/C [8] [%] | viability, T/C [9] [%] | viability, T/C [10] [%] | viability, T/C [11] [%] | viability, T/C [12] [%] | viability, T/C [13] [%] | viability, T/C [14] [%] | viability, T/C [15] [%] | further results |
| --- | --- | --- | --- | --- | --- | --- | --- | --- | --- | --- | --- | --- | --- | --- | --- | --- | --- | --- | --- | --- | --- |
| > 1000 | > 1000 | < 3.16 | < 3.16 | < 3.16 | CNC(C)C(=O)NC1CN(S(=O)(=O)c2cccc(S(=O)(=O)N3CCC4CCC(C(=O)NC(c5ccccc5)c5ccccc5)N4C(=O)C(NC(=O)C(C)NC)C3)c2)CCC2CCC(C(=O)NC(c3ccccc3)c3ccccc3)N2C1=O (stereo not given) + CCN1C(C(=O)NC23CCC(C(=O)O)(CC2)CC3)C(c2cccc(Cl)c2F)C2(C(=O)Nc3cc(Cl)ccc32)C12CCCCC2 | 85.6 | 91.7 | 89.2 | 73.3 | 63.5 | 65.8 | 65.4 | 60.4 | 35.1 | 24.6 | 35.6 | 30.3 | 5.92 | 4.78 | 6.7 | viability, T/C (second compound 0.03 µM, first compound 0.00316 µM): 92.8%; viability, T/C (second compound 0.03 µM, first compound 0.01 µM): 84.1%; viability, T/C (second compound 0.0949 µM, first compound 0.00316 µM): 86.3%; viability, T/C (second compound 0.0949 µM, first compound 0.01 µM): 70.2%; viability, T/C (second compound 0.3 µM, first compound 0.00316 µM): 41.7%; viability, T/C (second compound 0.3 µM, first compound 0.01 µM): 36.5%; viability, T/C (second compound 0.949 µM, first compound 0.00316 µM): 13.8%; viability, T/C (second compound 0.949 µM, first compound 0.01 µM): 9.3%; viability, T/C [16]: 8.64%; viability, T/C (second compound 3 µM, first compound 0.00316 µM): 3.86%; viability, T/C (second compound 3 µM, first compound 0.01 µM): 2.08%; viability, T/C [17]: 2.54%; viability, T/C [18]: 1.28%; viability, T/C [19]: 2.31%; viability, T/C [20]: 1.12% |
| 1720 | 592 | < 31.6 | < 31.6 | < 31.6 | O=C(c1cc(Cc2n[nH]c(=O)c3ccccc23)ccc1F)N1CCN(C(=O)C2CC2)CC1 + CCN1C(C(=O)NC23CCC(C(=O)O)(CC2)CC3)C(c2cccc(Cl)c2F)C2(C(=O)Nc3cc(Cl)ccc32)C12CCCCC2 | 94.9 | 83.6 | 80.9 | 63.6 | 74.5 | 63 | 61 | 42.8 | 33.6 | 29.5 | 20.9 | 17.4 | 9.62 | 5.99 | 4.91 | viability, T/C (second compound 0.03 µM, first compound 3.16 µM): 35%; viability, T/C (second compound 0.03 µM, first compound 10 µM): 9.54%; viability, T/C (second compound 0.0949 µM, first compound 3.16 µM): 14.8%; viability, T/C (second compound 0.0949 µM, first compound 10 µM): 5.01%; viability, T/C (second compound 0.3 µM, first compound 3.16 µM): 5.47%; viability, T/C (second compound 0.3 µM, first compound 10 µM): 3.11%; viability, T/C [16]: 4.88%; viability, T/C (second compound 0.949 µM, first compound 3.16 µM): 3.33%; viability, T/C (second compound 0.949 µM, first compound 10 µM): 2.8%; viability, T/C [17]: 2.94%; viability, T/C [18]: 3.36%; viability, T/C [19]: 2.53%; viability, T/C [20]: 3.39%; viability, T/C (second compound 3 µM, first compound 3.16 µM): 2.26%; viability, T/C (second compound 3 µM, first compound 10 µM): 2.33% |

— PubChem BioAssay AID1963424 (Molecular Pharmacology Branch, DTP, NCI, 2024)
